Where a name gives a salt, the structure may show the parent alone.
Columns and labels:
S. aureus = assay: Sterilization test of nitrogen oxide solutions without plasma; assay type: cell-based; settings: ionized nitrogen oxide solutions without plasma
Protocol: (§1) In order to confirm a sterilization effect of nitrogen oxides without plasma, ionized NO, NO2 and NO3 solutions were prepared and then sterilization experiments of S. typhimurium, S. aureus and E. coli were tested.

E. coli = assay: as above; assay type: cell-based; settings: ionized nitrogen oxide solutions without plasma
Protocol: as §1

S. typhimurium = assay: as above; assay type: cell-based; settings: ionized nitrogen oxide solutions without plasma
Protocol: as §1

[1] = system: bovine cornea (eye mucosa irritation)
Text: The BCOP assay is a test to evaluate an irritation index for the eye mucosa using opacity and permeability. […] An in vitro irritancy score (IVIS) may be calculated by measuring the opacity and permeability, and the IVIS value may be calculated by [Equation 3].
IVIS=Mean opacity unit[…] [Equation 3]

[2] = system: SKINETHIC™ human skin model; assay: Skin irritation test; assay type: cell-based; settings: relative to negative control group (PBS)
Protocol: In the skin irritation test, the absorbance was measured for a […]™ human skin model, and a cell viability value (%) was calculated using [Equation 4] to [Equation 6].
Cell viability (%) of negative control group=[absorbance of negative control group/absorbance of negative control group]×100 [Equation 4]
Cell viability (%) of positive control group=[absorbance of positive control group/absorbance of negative control group]×100 [Equation 5]

cells = assay: Annexin V/PI toxicity evaluation; assay type: cell-based; settings: spots in upper right end indicate dead cells

**Q.** For `O=NO` [NO2], which sterilization effect (S. aureus) is on record?
**A.** no sterilization effect was observed

**Q.** And the sterilization effect (E. coli)?
**A.** no sterilization effect was observed

**Q.** And the sterilization effect (S. typhimurium)?
**A.** no sterilization effect was observed

**Q.** What does the source list for `O=[N+]([O-])O` [NO3]?
**A.** sterilization effect (S. aureus): no sterilization effect was observed; sterilization effect (E. coli): no sterilization effect was observed; sterilization effect (S. typhimurium): no sterilization effect was observed

**Q.** For `CCO` [ethyl alcohol], which “corneal opacity (appearance)” value [1] is on record?
**A.** completely opaque

**Q.** And the “IVIS (in vitro irritancy score)” value ([1]; bovine)?
**A.** 39.4 ± 3.6

**Q.** What about the Opacity unit ([1]; bovine) of the same molecule?
**A.** 19.9 ± 0.6

**Q.** And the “Transmittance (Absorbance (OD490))” value ([1]; bovine)?
**A.** 1.300 ± 0.203

**Q.** `CN(C)CCCN1c2ccccc2Sc2ccc(Cl)cc21` [chlorpromazine hydrochloride] was tested. Which phototoxicity conclusion (BALB/3T3 clone A31 cells) did it give?
**A.** phototoxicity was shown

**Q.** And the “mean photo effect (MPE)” value (BALB/3T3 clone A31 cells; mouse)?
**A.** 0.418

**Q.** And the “photo irritation factor (PIF)” value (BALB/3T3 clone A31 cells; mouse)?
**A.** 18.882

**Q.** How did the cell viability [2] turn out when `CCCCCCCCCCCCOS(=O)(=O)[O-].[Na+]` [sodium dodecyl sulfate] was run?
**A.** about 1.1%

**Q.** How did the “Annexin V/PI toxicity” value (cells) turn out when `OO` [H2O2, hydrogen peroxide] was run?
**A.** many spots were present in the upper right end
